By AUC(0-t) is commonly meant the area under the concentration-time curve up to a stated or last time point. A lower AUC(0-t) goes with low exposure. As usually defined, the MRT is a mean duration of stay, worked out from the concentration-time curve. For orientation: half-life means the time in which the quantity being followed falls by half.

Data on 5 compounds can be found in patent US20230365590A1, “BIPHENYL COMPOUND AS IMMUNOMODULATOR, PREPARATION METHOD THEREFOR AND APPLICATION THEREOF” (SHENZHEN CHIPSCREEN BIOSCIENCES CO., LTD., priority 2020, published 2023).

Data set [1] is described as follows: Repeated-dosing pharmacokinetics test. In kind it is in vivo, B-hPD-1/hPD-L1 humanized female mice. The following applies: female, B-hPD-1/hPD-L1 (humanized), mouse, po; humanized mice, 50 mg/kg by gavage once a day for 12 days, plasma on day 12. How it is done:
24 6-week old B-hPD-1/hPD-L1 humanized female mice (purchased from Biocytogen (Jiangsu) Gene Biotechnology Co., Ltd.) were taken and the test compound was dissolved in a solvent containing 5% DMSO, 60% PEG400 and 35% purified water. The compound I-6 and three control molecules, Example 17, Compound 14 (INCB086550) and the aforementioned Example 180 were dosed. The compound was administered by gavage once a day in a dose of 50 mg/kg for 12 consecutive days, and blood was alternately collected through fundus vein plexus on day 12 of administration. The time points for blood collection were 15 min, 30 min, 1 h, 2 h, 4 h, 8 h, 24 h, 32 h and 48 h. About 0.1 mL of blood was collected and centrifuged in a centrifuge tube (heparin sodium for anticoagulation) at 5000 rpm for 5 min to separate plasma, and then frozen at −20° C. for testing. The concentration of the compound in the plasma was determined by liquid chromatography-mass spectrometry (LC-MS/MS). The pharmacokinetic parameters were calculated using Phoenix WinNonlin 7.0 based on the average blood concentration data at different time points.

A short description of data set [2]: Single-dosing pharmacokinetics test. The format is in vivo, B-hPD-1/hPD-L1 female mice. The note with it: female, B-hPD-1/hPD-L1 (humanized), mouse, po; humanized mice, single dose of 100 mg/kg by gavage, plasma. How it is done: 24 6-week old B-hPD-1/hPD-L1 female mice (purchased from Biocytogen (Jiangsu) Gene Biotechnology Co., Ltd.) were taken and the test compound was dissolved in a solvent containing 5% DMSO, 60% PEG400 and 35% purified water. The compound I-6 and three control molecules, Example 17, Compound 14 (INCB086550) and Example 180 were dosed. The compound was administered by gavage in a single dose of 100 mg/kg and blood was collected through fundus vein plexus after administration. The time points for blood collection were 15 min, 30 min, 1 h, 2 h, 4 h, 8 h, 24 h, 32 h and 48 h. About 0.1 mL of blood was collected and centrifuged in a centrifuge tube (heparin sodium anticoagulation) at 5000 rpm for 5 min to separate plasma, and then frozen at −20° C. for testing. After the plasma sample was treated, the concentration of the compound in the plasma was determined by liquid chromatography-mass spectrometry (LC-MS/MS). The pharmacokinetic parameters were calculated using Phoenix WinNonlin 7.0 based on the average blood concentration data at different time points.

For data set [3] the following is noted: clinical studies; cited from earlier work.

Turning to `Cc1c(Nc2nccc3cc(CN4CC[C@@H](O)C4)cnc23)cccc1-c1cccc(-c2nc3cc(CN4CC[C@@H](C(=O)O)C4)cc(C#N)c3o2)c1C` [Compound 14 (INCB086550)], in data set [1], the AUC(0-t) was 10600 ng·h/mL, the MRT was 5 h and the half-life is 3.7 h. In data set [2], this compound showed an AUC(0-t) of 19600 ng·h/mL, an MRT of 5.9 h and a half-life of 3.9 h.
On to `Cn1c(C(=O)Nc2cccc(-c3cccc(NC(=O)c4nc5c(n4C)CCN(CCC46CCC(C(=O)O)(CC4)C6)C5)c3Cl)c2Cl)nc2c1CCN(CCC13CCC(C(=O)O)(CC1)C3)C2` [Example 17], for which, in data set [1], the AUC(0-t) was determined as 58800 ng·h/mL, the MRT came out at 4.6 h and the half-life is 3.9 h. Moreover, in data set [2], the AUC(0-t) was determined as 118000 ng·h/mL, the MRT was determined as 4.2 h and the half-life is 3.8 h.
In the case of atezolizumab: PD-1/PD-L1 antibody drug, in data set [3], the “half time T1/2” value was 648 h.
In the case of nivolumab: PD-1/PD-L1 antibody drug, the “half time T1/2” value in data set [3] was 605 h.
As for pembrolizumab: PD-1/PD-L1 antibody drug, the “half time T1/2” value in data set [3] is 600 h.
